Some targets named below: Cytochrome P450 2D6 (Homo sapiens, UniProt P10635); Cytochrome P450 2C9 (Homo sapiens, UniProt P11712); Cytochrome P450 3A4 (Homo sapiens, UniProt P08684).
In the next data set the target is Cytochrome P450 2C19 (Homo sapiens, UniProt P33261). In words: Cytochrome panel assay with activity outcomes. Panel member name: p450-cyp2c19 Compounds with AC50 equal or less than 10 uM are considered active. The data set is classed as functional.
Another data set deals with T1, Cytochrome P450 1A2 (Homo sapiens, UniProt P05177).
T1 sequence (P05177 whole entry): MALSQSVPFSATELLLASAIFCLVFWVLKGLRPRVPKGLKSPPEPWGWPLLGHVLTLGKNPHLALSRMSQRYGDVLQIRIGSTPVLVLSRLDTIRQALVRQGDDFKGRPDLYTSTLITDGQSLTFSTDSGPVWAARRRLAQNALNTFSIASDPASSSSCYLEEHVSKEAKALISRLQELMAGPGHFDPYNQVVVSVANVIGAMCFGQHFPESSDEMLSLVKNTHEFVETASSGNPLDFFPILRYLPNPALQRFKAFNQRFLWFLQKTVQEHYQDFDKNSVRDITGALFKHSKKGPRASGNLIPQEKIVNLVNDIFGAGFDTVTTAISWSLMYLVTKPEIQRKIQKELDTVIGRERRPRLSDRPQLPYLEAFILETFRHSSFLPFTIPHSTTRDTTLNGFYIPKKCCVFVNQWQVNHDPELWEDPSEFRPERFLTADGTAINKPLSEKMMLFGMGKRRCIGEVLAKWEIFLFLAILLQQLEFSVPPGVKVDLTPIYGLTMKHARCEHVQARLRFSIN

A further data set concerns the target T2, Streptokinase A (Streptococcus pyogenes serotype M1, UniProt P10520).
T2 sequence (P10520 whole entry): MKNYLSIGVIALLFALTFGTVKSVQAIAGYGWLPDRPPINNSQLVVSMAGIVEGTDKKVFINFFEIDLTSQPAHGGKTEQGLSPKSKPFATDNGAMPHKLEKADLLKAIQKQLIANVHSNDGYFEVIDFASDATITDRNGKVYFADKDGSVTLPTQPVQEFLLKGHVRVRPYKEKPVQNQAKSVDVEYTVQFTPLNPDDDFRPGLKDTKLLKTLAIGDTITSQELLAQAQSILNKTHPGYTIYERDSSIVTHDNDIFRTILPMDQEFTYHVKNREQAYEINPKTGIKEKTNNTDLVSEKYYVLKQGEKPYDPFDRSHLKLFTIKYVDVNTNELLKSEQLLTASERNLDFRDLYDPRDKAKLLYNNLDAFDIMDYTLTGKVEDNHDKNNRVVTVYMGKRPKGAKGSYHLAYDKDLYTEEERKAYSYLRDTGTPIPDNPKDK
The data set is described as follows: S. pyogenes streptokinase expression inhibitors, potency, dose response, plasminogen activation absorbance, OD405 (AID 1914).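 Further: secreted streptokinase activity via plasminogen activation per viability signal from cell pellet.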 The data set is classed as functional, Streptococcus pyogenes M1 GAS.

Data set [1] deals with Streptococcus sp. 'group A'. The data set is described as follows: growth inhibition of control SK(-) GAS strain, dose response, counter-screen for streptokinase expression inhibitor project, luminescence, kanamycin, BacTiterGlo, confirmation (AID 1900). The data set is classed as functional, organism-based. On the technique in general: Counterscreens check selectivity or assay interference.

A further data set has as its system Streptococcus. The data set is described as follows: Group A Streptococcus viability loss, dose response, counter-screen for streptokinase expression inhibitor project, luminescence, BacTiterGlo (AID 1915).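 Further: potency for reduction of bacterial viability or growth.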 The data set is classed as functional, organism-based.
Data set [2] is described as follows: inhibitors of SNCA 5'UTR-driven reporter translation, confirmation, H4 neuroglioma cells, luminescence (AID 1988). The data set is classed as functional, cell-based.
Data set [3] can be described thus: Luminescence Cell-Based Dose Response HTS to Identify Inhibitors of 5'UTR Stem-Loop Driven Prion Protein mRNA Translation in H4 Neuroglioblastoma Cells. [Related pubchem assays: 1827 (Project Summary), 1813 (Primary HTS)]. The data set is classed as functional.

In general, AC50 refers to the concentration at which the activity in the assay is half-maximal. One may read the EC50 as the concentration needed to bring the measured effect to its halfway point.

SMILES strings stand for the structures. The source made the active and inactive calls.

Cytochrome P450 2C19, sequence (P33261 whole entry): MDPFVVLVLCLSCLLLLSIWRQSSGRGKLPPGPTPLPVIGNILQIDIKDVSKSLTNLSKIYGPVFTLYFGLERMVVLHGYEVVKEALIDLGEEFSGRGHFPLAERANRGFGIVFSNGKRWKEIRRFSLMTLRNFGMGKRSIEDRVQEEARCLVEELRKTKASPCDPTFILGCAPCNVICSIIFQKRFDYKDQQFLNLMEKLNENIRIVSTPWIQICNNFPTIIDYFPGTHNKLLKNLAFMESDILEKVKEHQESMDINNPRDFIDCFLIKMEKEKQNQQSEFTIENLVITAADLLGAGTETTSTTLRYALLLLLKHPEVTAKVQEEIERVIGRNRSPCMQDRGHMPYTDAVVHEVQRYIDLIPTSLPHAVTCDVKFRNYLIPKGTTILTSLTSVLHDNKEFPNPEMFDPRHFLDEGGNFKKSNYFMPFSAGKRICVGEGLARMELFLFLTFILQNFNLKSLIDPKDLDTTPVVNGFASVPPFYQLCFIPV
Cytochrome P450 2D6, sequence (P10635 whole entry): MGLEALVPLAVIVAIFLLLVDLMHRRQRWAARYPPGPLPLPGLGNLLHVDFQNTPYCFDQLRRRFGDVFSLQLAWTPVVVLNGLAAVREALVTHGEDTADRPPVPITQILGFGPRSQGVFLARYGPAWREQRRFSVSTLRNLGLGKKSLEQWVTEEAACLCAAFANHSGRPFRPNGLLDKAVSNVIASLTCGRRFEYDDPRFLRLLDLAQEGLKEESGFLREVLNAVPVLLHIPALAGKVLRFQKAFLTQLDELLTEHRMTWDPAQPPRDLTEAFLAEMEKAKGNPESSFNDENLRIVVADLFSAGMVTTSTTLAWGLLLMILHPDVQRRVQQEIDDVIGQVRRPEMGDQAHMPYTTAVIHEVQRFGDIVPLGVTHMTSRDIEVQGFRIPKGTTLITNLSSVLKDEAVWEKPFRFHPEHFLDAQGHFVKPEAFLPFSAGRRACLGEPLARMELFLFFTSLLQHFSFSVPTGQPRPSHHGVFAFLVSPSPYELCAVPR
Cytochrome P450 2C9, sequence (P11712 whole entry): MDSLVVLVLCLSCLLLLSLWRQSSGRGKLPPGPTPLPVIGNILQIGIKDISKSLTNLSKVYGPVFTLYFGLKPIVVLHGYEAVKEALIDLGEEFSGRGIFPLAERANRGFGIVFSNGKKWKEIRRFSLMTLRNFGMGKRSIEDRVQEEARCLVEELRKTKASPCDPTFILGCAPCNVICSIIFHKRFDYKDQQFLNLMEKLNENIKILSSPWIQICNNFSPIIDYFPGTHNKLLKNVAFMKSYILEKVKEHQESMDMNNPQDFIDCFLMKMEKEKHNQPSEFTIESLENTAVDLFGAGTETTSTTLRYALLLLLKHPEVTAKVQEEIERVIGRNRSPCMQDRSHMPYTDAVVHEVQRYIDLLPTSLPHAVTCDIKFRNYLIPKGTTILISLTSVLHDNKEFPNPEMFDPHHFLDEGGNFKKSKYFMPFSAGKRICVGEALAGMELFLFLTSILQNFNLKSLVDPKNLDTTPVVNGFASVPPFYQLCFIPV
Cytochrome P450 3A4, sequence (P08684 whole entry): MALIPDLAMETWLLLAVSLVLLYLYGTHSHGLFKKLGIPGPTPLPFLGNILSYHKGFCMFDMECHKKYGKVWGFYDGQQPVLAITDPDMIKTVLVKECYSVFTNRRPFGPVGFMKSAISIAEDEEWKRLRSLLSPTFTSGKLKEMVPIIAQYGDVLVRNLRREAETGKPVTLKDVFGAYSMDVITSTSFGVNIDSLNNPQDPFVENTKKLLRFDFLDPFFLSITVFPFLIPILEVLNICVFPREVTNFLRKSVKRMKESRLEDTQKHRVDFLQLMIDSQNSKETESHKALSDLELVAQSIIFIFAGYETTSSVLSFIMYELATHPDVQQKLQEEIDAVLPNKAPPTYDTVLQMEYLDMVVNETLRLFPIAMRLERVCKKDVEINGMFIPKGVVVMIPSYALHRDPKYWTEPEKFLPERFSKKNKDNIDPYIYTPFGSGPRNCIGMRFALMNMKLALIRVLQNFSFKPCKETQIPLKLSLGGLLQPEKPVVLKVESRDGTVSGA

As for `CC(C)Oc1ccc(N2CC(C(=O)OCC(=O)NCc3ccccc3)CC2=O)cc1` (stereo not given), the results for the concentration at half-maximal activity (AC50) at Cytochrome P450 2D6 and at Cytochrome P450 2C9 were 22.4 µM (inconclusive) and 28.2 µM (inconclusive), respectively.
Take `CCCCCCCCN[C@@H](C)[C@H](O)c1ccc(SC(C)C)cc1` [SULOCTIDIL]: the AC50 at Cytochrome P450 2C9 is 0.00501 µM (inconclusive); at Cytochrome P450 2C19 (read-out: AC50) it was 10 µM (inconclusive).
Take `COc1ccccc1CNc1ncnc2ccc(-c3cccc(C#N)c3)cc12`: the AC50 at Cytochrome P450 2D6 was 2.51 µM (inconclusive).
On to `O=S(=O)(NCCNC/C=C\c1ccc(Br)cc1)c1cccc2cnccc12`, for which the concentration at half-maximal activity (AC50) was 25.1 µM (inconclusive) on Cytochrome P450 2D6 and 15.8 µM (inconclusive) at Cytochrome P450 2C19 (read-out: AC50).
Turning to `O=C(O)c1ccccc1Nc1cccc(C(F)(F)F)c1` [FLUFENAMIC ACID], the AC50 at Cytochrome P450 2C9 was 10 µM (inconclusive).
Take `CN(C)c1ncc2nc(-c3cccs3)c(=O)n(C)c2n1`: at Cytochrome P450 3A4, the AC50 is 31.6 µM (inconclusive).
Regarding `Cn1cc(-c2nc3cnc(N4CCNCC4)nc3n(C3CC3)c2=O)c2ccccc21`, on Cytochrome P450 3A4, the AC50 was 7.94 µM (inconclusive).
Consider `O=C(c1cccc(F)c1)N1CCC2(CCCN(c3ccncc3)C2)CC1`, for which the AC50 is 15.8 µM (inconclusive) at Cytochrome P450 2D6 and 31.6 µM (inconclusive) at Cytochrome P450 1A2.
Turning to `Cc1cccc(CNc2ncnc3ccc(-c4cccc(C#N)c4)cc23)c1`, the AC50 at Cytochrome P450 2C9 was 0.794 µM (inconclusive).
As to `Cc1cc(C)cc(NC(=O)CC(=N)NO)c1`, the AC50 at Cytochrome P450 3A4 was 28.2 µM (inconclusive).
On to `CC(=O)c1ccc(NC(=O)C2CC(c3ccc(F)cc3)=NO2)cc1` (stereo not given), for which the concentration at half-maximal activity (AC50) on Cytochrome P450 1A2 is 0.00794 µM (inconclusive); at Cytochrome P450 2C9 it was 1.12 µM (inconclusive); on Cytochrome P450 2C19 (read-out: AC50), 17.8 µM (inconclusive).
Turning to `Fc1ccc(CSc2ncnc3sc4c(c23)CCCC4)cc1`, the EC50 at Streptokinase A is 13.3 µM (active); in data set [1] it was 22.8 µM (active); with Streptococcus it was > 150 µM (not active). Besides, the AC50 at Cytochrome P450 3A4 was 35.5 µM (inconclusive).
`CCCN1C(=O)C(Cc2nc3ccccc3c(=O)n2C)c2ccccc21` (stereo not given): the concentration at half-maximal activity (AC50) was 17.8 µM (inconclusive) at Cytochrome P450 2D6, 25.1 µM (inconclusive) on Cytochrome P450 1A2 and 0.0562 µM (inconclusive) on Cytochrome P450 2C19 (read-out: AC50).
Consider `Cc1noc(NS(=O)(=O)c2ccc(NC(=O)CC34CC5CC(CC(Br)(C5)C3)C4)cc2)c1C`, for which the AC50 on Cytochrome P450 2C9 is 22.4 µM (inconclusive); at Cytochrome P450 2C19, “inconclusive”.
As for `Cc1nc(SCC(=O)Nc2ccc(N3CCOCC3)cc2)nc(C)c1C`, at Cytochrome P450 2C9, the concentration at half-maximal activity (AC50) is 12.6 µM (inconclusive).
On the same count and under the same terms, to `Cc1cc(NC(=O)Nc2ccc(F)cc2)no1` belongs 15.8 µM (inconclusive).
As to `COc1cccc(C(=O)Nc2ccc(NC(=O)c3ccco3)cn2)c1`, the values for the AC50 on Cytochrome P450 2D6 and on Cytochrome P450 1A2 were 20 µM (inconclusive) and 25.1 µM (inconclusive), respectively.
Regarding `Cc1cccc(NC(S)=NNC(=O)CC(C)O)c1C` (stereo not given), the AC50 at Cytochrome P450 2C9 is 0.00708 µM (inconclusive).
Consider `c1ccc2c(c1)CCCc1cc(NCCN3CCOCC3)nnc1-2`, for which the AC50 at Cytochrome P450 3A4 is 6.31 µM (inconclusive).
Take `COc1ccc(Br)cc1/C=C/c1ccc2cccc(O)c2n1`: the EC50 at Streptokinase A is > 150 µM (not active); in data set [1], 0.246 µM (active); in data set [2], > 120 µM (not active); in the data set with Streptococcus, 6.48 µM (active); in [3] it was 13.4 µM (active).
In the case of `NS(=O)(=O)c1ccc(/N=N\c2cccnc2O)cc1`, the AC50 at Cytochrome P450 1A2 was 0.501 µM (inconclusive); on Cytochrome P450 2C9, 3.16 µM (inconclusive); on Cytochrome P450 2C19 (read-out: AC50), 3.98 µM (inconclusive).
For `O=C(O)[C@H]1CCCC[C@@H]1c1c2ccc(=O)c(O)c-2oc2c(O)c(O)ccc12`, the AC50 is 6.31 µM (inconclusive) at Cytochrome P450 2C9 and 2.51 µM (inconclusive) at Cytochrome P450 2C19 (read-out: AC50).
Consider `Cc1ccc(SCc2ccc(C(=O)NCc3ccncc3)cc2)cc1`, for which the AC50 at Cytochrome P450 3A4 is 7.08 µM (inconclusive).
Turning to `COc1ccc2[nH]cc(CCNc3nc(-c4ccoc4)nc4ccccc34)c2c1`, the AC50 at Cytochrome P450 2C9 was 1 µM (inconclusive).
For the molecule `Cc1cccc(OCCCC(=O)Nc2ccccc2C(F)(F)F)c1`, the AC50 at Cytochrome P450 2D6 was 25.1 µM (inconclusive).

Values taken from ChEMBL document CHEMBL1201862, “PubChem BioAssay data set” (2004).
